Usually T/C stands for the ratio of treated to control.

This test deals with C57BL/6 mice, Adenocarcinoma 755 sc, tumor weight T/C. In words: NCI In Vivo Anticancer Drug Screen. Data for tumor model Adenocarcinoma 755 (subcutaneous) in C57BL/6 mice. The note with it: endpoint: mean tumor weight, higher = larger tumour. The protocol: The antitumor activity of compounds was measured in mice bearing transplantable tumors. Survival or tumor size were measured and the results are expressed as the measurement made in the treated group (T) divided by the measurement made in the vehicle treated control group (C). The tumor model used in this assay is Adenocarcinoma 755 (subcutaneous) in C57BL/6 mice

Setting [1] is: dose: 2.5 mg/kg/injection, schedule: Q01DX011 (ip), vehicle: carboxymethylcellulose (CMC).
The mark [2] stands for this setting: dose: 10.0 mg/kg/injection, schedule: Q01DX011 (ip), vehicle: saline.
Setting [3] is: dose: 15.0 mg/kg/injection, schedule: Q01DX011 (ip), vehicle: saline.
[4] abbreviates: dose: 20.0 mg/kg/injection, schedule: Q01DX011 (ip), vehicle: saline.
The mark [5] stands for this setting: dose: 25.0 mg/kg/injection, schedule: Q01DX011 (ip), vehicle: saline.
Setting [6] is: dose: 40.0 mg/kg/injection, schedule: Q01DX011 (ip), vehicle: carboxymethylcellulose (CMC).
Setting [7] is: dose: 50.0 mg/kg/injection, schedule: Q01DX011 (ip), vehicle: carboxymethylcellulose (CMC).
The mark [8] stands for this setting: dose: 125.0 mg/kg/injection, schedule: Q01DX011 (ip), vehicle: saline.
The mark [9] stands for this setting: dose: 12.5 mg/kg/injection, schedule: Q01DX011 (ip), vehicle: methylcellulose (MC).
[10] abbreviates: dose: 25.0 mg/kg/injection, schedule: Q01DX011 (ip), vehicle: methylcellulose (MC).
[11] abbreviates: dose: 200.0 mg/kg/injection, schedule: Q01DX011 (ip), vehicle: saline.
The mark [12] stands for this setting: dose: 300.0 mg/kg/injection, schedule: Q01DX011 (ip), vehicle: saline.
Setting [13] is: dose: 400.0 mg/kg/injection, schedule: Q01DX011 (ip), vehicle: saline.
Setting [14] is: dose: 50.0 mg/kg/injection, schedule: Q01DX011 (ip), vehicle: saline.
The mark [15] stands for this setting: dose: 100.0 mg/kg/injection, schedule: Q01DX011 (ip), vehicle: saline.

Values joined by “and” are separate entries in the source; they are usually repeats but may differ in a detail not shown here. Identical values can stand only once.

For the compound `CS(=O)(=O)OCCCCOS(C)(=O)=O`, the T/C is 86 % of control under setting [1]; 57 % of control (dose: 5.0 mg/kg/injection, schedule: Q01DX011 (ip), vehicle: carboxymethylcellulose (CMC)); 69 % of control (dose: 10.0 mg/kg/injection, schedule: Q01DX011 (ip), vehicle: carboxymethylcellulose (CMC)); 59 % of control (dose: 10.0 mg/kg/injection, schedule: Q02DX006 (ip), vehicle: other); 51 % of control (dose: 12.5 mg/kg/injection, schedule: Q02DX006 (ip), vehicle: other); 56 % of control (dose: 15.0 mg/kg/injection, schedule: Q01DX011 (ip), vehicle: carboxymethylcellulose (CMC)). Also, the T/C was 76 % of control (dose: 15.0 mg/kg/injection, schedule: Q02DX006 (ip), vehicle: other); 49 % of control (dose: 20.0 mg/kg/injection, schedule: Q01DX011 (ip), vehicle: carboxymethylcellulose (CMC)); 26 % of control (dose: 25.0 mg/kg/injection, schedule: Q01DX011 (ip), vehicle: carboxymethylcellulose (CMC)).

As to `CN(CC(=O)O)C(=N)N`, the T/C runs as follows: (dose: 250.0 mg/kg/injection, schedule: Q01DX011 (ip), vehicle: saline) 105 % of control; (dose: 500.0 mg/kg/injection, schedule: Q01DX011 (ip), vehicle: saline) 110 % of control; (dose: 1000.0 mg/kg/injection, schedule: Q01DX011 (ip), vehicle: saline) 57 % of control; (dose: 2000.0 mg/kg/injection, schedule: Q01DX011 (ip), vehicle: saline) 102 % of control.

Regarding `Nc1nc(SCc2ccccc2)c2[nH]cnc2n1`, the T/C is 17 % of control (dose: 2.5 mg/kg/injection, schedule: Q01DX011 (ip), vehicle: saline); 5 % of control (dose: 5.0 mg/kg/injection, schedule: Q01DX011 (ip), vehicle: saline); 2 % of control under setting [2].

In the case of `N=[N+]=CC(=O)OCC(N)C(=O)O` (centres undefined), the T/C was 31 % of control (dose: 4.0 mg/kg/injection, schedule: Q01DX011 (ip), vehicle: saline) and 46 % of control (dose: 8.0 mg/kg/injection, schedule: Q01DX011 (ip), vehicle: saline).

With `CCCCNc1ncnc2[nH]ncc12`, the T/C is 31 % of control under setting [3], 7 % of control under setting [4] and 24 % of control under setting [5].

As to `NC(=O)c1ccc(N)nc1`, the T/C reads like this: (dose: 1.0 mg/kg/injection, schedule: Q01DX011 (ip), vehicle: saline) 92 % of control and 94 % of control; (dose: 1.5 mg/kg/injection, schedule: Q01DX011 (ip), vehicle: saline) 52 % of control; (dose: 2.0 mg/kg/injection, schedule: Q01DX011 (ip), vehicle: saline) 48 % of control.

On to `Cn1cnc([N+](=O)[O-])c1Sc1nc(N)nc2nc[nH]c12`, for which the T/C (dose: 5.0 mg/kg/injection, schedule: Q01DX011 (oral), vehicle: saline) is 2 % of control.

On to `CSc1ncnc2nc[nH]c12`, for which the T/C was 16 % of control (dose: 1.25 mg/kg/injection, schedule: Q01DX011 (ip), vehicle: carboxymethylcellulose (CMC)); 8 % of control under setting [1]; 58 % of control (dose: 7.5 mg/kg/injection, schedule: Q01DX011 (ip), vehicle: saline); 23 % of control under setting [2]; 2 % of control under setting [3]; 6 % of control and 9 % of control under setting [4]. Further, the T/C was 5 % of control (dose: 30.0 mg/kg/injection, schedule: Q01DX011 (ip), vehicle: carboxymethylcellulose (CMC)); 1 % of control and 2 % of control and 9 % of control (dose: 30.0 mg/kg/injection, schedule: Q01DX011 (ip), vehicle: saline); 2 % of control under setting [6]; 3 % of control (dose: 40.0 mg/kg/injection, schedule: Q01DX011 (ip), vehicle: saline); 3 % of control under setting [7].

Take `CC(=O)OCC(=O)[C@@]1(O)CC[C@H]2[C@@H]3CCC4=CC(=O)CC[C@]4(C)[C@H]3C(=O)C[C@@]21C`: the T/C is 24 % of control (dose: 40.0 mg/kg/injection, schedule: Q01DX011 (sc), vehicle: saline); 43 % of control (dose: 45.0 mg/kg/injection, schedule: Q01DX011 (sc), vehicle: saline); 16 % of control (dose: 50.0 mg/kg/injection, schedule: Q01DX011 (sc), vehicle: saline); 15 % of control and 39 % of control (dose: 60.0 mg/kg/injection, schedule: Q01DX011 (sc), vehicle: saline); 8 % of control (dose: 100.0 mg/kg/injection, schedule: Q01DX011 (sc), vehicle: saline).

As for `Nc1c(Br)cc2c(c1Br)Cc1cc([N+](=O)[O-])ccc1-2`, the T/C (dose: 31.3 mg/kg/injection, schedule: Q01DX011 (ip), vehicle: saline) was 17 % of control and the T/C under setting [8] was 17 % of control.

For the compound `O=C(c1ccc(C(=O)N2CC2)cc1)N1CC1`, the T/C under setting [9] is 60 % of control and the T/C under setting [10] was 53 % of control.

Regarding `Cn1cc(NC(=O)c2cc(NC(=O)CN=C(N)N)cn2C)cc1C(=O)NCCC(=N)N`, the T/C is, setting by setting: (dose: 20.0 mg/kg/injection, schedule: Q02DX006 (ip), vehicle: water) 95 % of control; (dose: 25.0 mg/kg/injection, schedule: Q02DX006 (ip), vehicle: water) 69 % of control; (dose: 30.0 mg/kg/injection, schedule: Q02DX006 (ip), vehicle: water) 31 % of control.

Take `CCOC(N)=O`: the T/C under setting [11] was 34 % of control; the T/C under setting [12] is 38 % of control; the T/C under setting [13] is 20 % of control; the T/C (dose: 500.0 mg/kg/injection, schedule: Q02DX006 (ip), vehicle: water) was 49 % of control; the T/C (dose: 600.0 mg/kg/injection, schedule: Q01DX011 (ip), vehicle: saline) was 3 % of control; the T/C (dose: 600.0 mg/kg/injection, schedule: Q02DX006 (ip), vehicle: water) was 34 % of control.

On to `Nc1[nH]c(=S)nc2nc[nH]c12`, for which the T/C is 46 % of control (dose: 5.0 mg/kg/injection, schedule: Q02DX006 (ip), vehicle: saline); 33 % of control (dose: 6.0 mg/kg/injection, schedule: Q02DX006 (ip), vehicle: saline); 25 % of control (dose: 8.0 mg/kg/injection, schedule: Q02DX006 (ip), vehicle: saline).

As for `CS(=O)(=O)OCCC(=O)N1CCN(C(=O)CCOS(C)(=O)=O)CC1`, the T/C is 83 % of control (dose: 6.25 mg/kg/injection, schedule: Q01DX011 (ip), vehicle: methylcellulose (MC)); 86 % of control under setting [9]; 55 % of control under setting [10].

Take `Cn1cnc2[nH]cnc(=S)c21`: the T/C reads like this: under setting [7], 110 % of control; under setting [11], 45 % of control; under setting [12], 30 % of control; under setting [13], 22 % of control.

For the compound `Cn1cnc([N+](=O)[O-])c1SCc1ccccc1`, the T/C runs as follows: under setting [14], 52 % of control; under setting [15], 49 % of control; under setting [8], 33 % of control; (dose: 150.0 mg/kg/injection, schedule: Q01DX011 (ip), vehicle: saline) 54 % of control; (dose: 175.0 mg/kg/injection, schedule: Q01DX011 (ip), vehicle: saline) 66 % of control.

With `O=c1[nH]cc(Br)c(=O)[nH]1`, the T/C by setting is: (dose: 50.0 mg/kg/injection, schedule: Q02DX006 (ip), vehicle: other) 56 % of control; (dose: 75.0 mg/kg/injection, schedule: Q02DX006 (ip), vehicle: other) 71 % of control.

As for `O=[N+]([O-])c1ccc(CSc2ncnc3nc[nH]c23)cc1`, the T/C under setting [15] is 4 % of control.

As for `O=c1[nH]c(=O)n(C2CC(O)C(CO)O2)cc1C(F)(F)F` (centres undefined), the T/C reads like this: (dose: 12.5 mg/kg/injection, schedule: Q01DX011 (ip), vehicle: saline) 81 % of control; under setting [5], 52 % of control; under setting [14], 27 % of control; under setting [15], 27 % of control.

As to `Cn1cnc2ncnc(Cl)c21`, the T/C (dose: 75.0 mg/kg/injection, schedule: Q01DX011 (ip), vehicle: carboxymethylcellulose (CMC)) is 183 % of control.

With `O=CNC(Cc1ccc(N(CCCl)CCCl)cc1)C(=O)O` (centres undefined), the T/C is 39 % of control under setting [6] and 1 % of control (dose: 80.0 mg/kg/injection, schedule: Q01DX011 (ip), vehicle: carboxymethylcellulose (CMC)).

The values above are taken from PubChem BioAssay AID218 (DTP/NCI, 2004).
